From patent US20250154138A1, “Small Molecule IL-17A Modulators” (BeiGene, Ltd., priority 2022, published 2025)

What was measured:
[1] = biological target: human IL-17A / human IL-17RA (Homo sapiens (Human), UniProt Q16552); experiment: Human IL-17A biochemical assay (HTRF, blocking of IL-17A binding to IL-17RA); settings: 0.4 nM IL-17A, 0.3 nM IL-17RA, max compound concentration 10 uM
In short: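 HTRF competition: 0.4 nM recombinant human IL-17A pre-incubated 3 h at room temperature with compound (top 10 uM, 2.7-fold, 10 points) in HEPES pH 7.5 buffer, then 0.3 nM IL-17RA added for 1 h, then anti-6His-Tb/anti-human IgG-XL665 detection for 1 h.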

[2] = system: IL-17-induced GROα secretion from HT-29 cells; experiment: GROα release assay in human colorectal adenocarcinoma epithelial cell (HT-29, ELISA); assay type: cell-based; settings: Homo sapiens, HT-29, 48 h, 10 ng/mL IL-17A, highest concentration 10 μM, read-out: Cellular assay HT29 cell/CXCL1 IC50
In short: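 HT-29 cells were exposed 48 h at 37°C to IL-17A (final 10 ng/mL) preincubated 15 min with compound (4-fold dilutions, top 10 μM). Secreted GROα was quantified by ELISA against a standard curve, and IC50 obtained by four-parameter fitting.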

human IL-17A / human IL-17RA, sequence (Q16552 24-155): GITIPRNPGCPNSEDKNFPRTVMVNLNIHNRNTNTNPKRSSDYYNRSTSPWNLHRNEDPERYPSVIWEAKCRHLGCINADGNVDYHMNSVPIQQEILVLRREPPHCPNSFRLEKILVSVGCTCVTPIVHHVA

Row | SMILES | IC50 [1] | IC50 [2]
1 | CNC(=O)C1(N2CC(C(C)C)NC2=O)Cc2ccc(NC(=O)[C@@H](NC(=O)c3nonc3C)C3CCCCC3)cc2C1 (stereo partly drawn) [Example 30, N-((1S)-1-cyclohexyl-2-((2-(4-isopropyl-2-oxoimidazolidin-1-yl)-2-(methylcarbamoyl)-2,3-dihydro-1H-inden-5-yl)amino)-2-oxoethyl)-4-methyl-1,2,5-oxadiazole-3-carboxamide] | 58 nM | 576 nM
2 | CNC(=O)C1(N2CC3(CC3)CNC2=O)Cc2ccc(NC(=O)C(NC(=O)c3ccnn3C)C3CCC(C(F)(F)F)CC3)cc2C1 (stereo not shown) [Example 164, 1-methyl-N-(2-((2-(methylcarbamoyl)-2-(6-oxo-5,7-diazaspiro[2.5]octan-5-yl)-2,3-dihydro-1H-inden-5-yl)amino)-2-oxo-1-(4-(trifluoromethyl)cyclohexyl)ethyl)-1H-pyrazole-5-carboxamide] | 35.2 nM | 112 nM
3 | CNC(=O)C1(N2C[C@@H](C(C)C)NC2=O)Cc2ccc(NC(=O)[C@H](Cc3ccc(Cl)cc3)NC(=O)c3ccnn3C)cc2C1 (stereo partly drawn) [Example 204, N-((2S)-3-(4-chlorophenyl)-1-((2-((R)-4-isopropyl-2-oxoimidazolidin-1-yl)-2-(methylcarbamoyl)-2,3-dihydro-1H-inden-5-yl)amino)-1-oxopropan-2-yl)-1-methyl-1H-pyrazole-5-carboxamide] | 406 nM | 2240 nM
4 | CC1CN(C2Cc3ccc(NC(=O)[C@@H](NC(=O)c4ccnn4C)C4CCCCC4)cc3C2)C(=O)N1 (stereo partly drawn) [Example 3, N-((1S)-1-cyclohexyl-2-((2-(4-methyl-2-oxoimidazolidin-1-yl)-2,3-dihydro-1H-inden-5-yl)amino)-2-oxoethyl)-1-methyl-1H-pyrazole-5-carboxamide] | 3190 nM | 8430 nM
5 | Cc1nocc1C(=O)N[C@H](C(=O)Nc1ccc2c(c1)CC(N1C[C@@H](C(F)(F)F)NC1=O)C2)C(C1CC1)C1CC1 (stereo partly drawn) [Example 218, N-((2S)-1,1-dicyclopropyl-3-oxo-3-((2-((S)-2-oxo-4-(trifluoromethyl)imidazolidin-1-yl)-2,3-dihydro-1H-inden-5-yl)amino)propan-2-yl)-3-methylisoxazole-4-carboxamide] | 141 nM | 385 nM
6 | Cc1nonc1C(=O)N[C@H](C(=O)Nc1ccc2c(c1)CC(C(=O)Nc1ccc(Cl)cc1)(N1C[C@@H](C(C)C)NC1=O)C2)C(C1CC1)C1CC1 (stereo partly drawn) [Example 269, N-((2S)-1-((2-((4-chlorophenyl)carbamoyl)-2-((R)-4-isopropyl-2-oxoimidazolidin-1-yl)-2,3-dihydro-1H-inden-5-yl)amino)-3,3-dicyclopropyl-1-oxopropan-2-yl)-4-methyl-1,2,5-oxadiazole-3-carboxamide] | 416 nM | 1070 nM
7 | CC#CCC1CN(C2(C(=O)NC)Cc3ccc(NC(=O)[C@@H](NC(=O)c4ccnn4C)C4CCCCC4)cc3C2)C(=O)N1 (stereo partly drawn) [Example 106, N-((1S)-2-((2-(4-(but-2-yn-1-yl)-2-oxoimidazolidin-1-yl)-2-(methylcarbamoyl)-2,3-dihydro-1H-inden-5-yl)amino)-1-cyclohexyl-2-oxoethyl)-1-methyl-1H-pyrazole-5-carboxamide] | 48 nM | 202 nM
8 | CNC(=O)C1(N2CC(C(F)(F)F)NC2=O)Cc2ccc(NC(=O)[C@@H](NC(=O)c3ccnn3C)C3CCCCC3)cc2C1 (stereo partly drawn) [Example 202, N-((1S)-1-cyclohexyl-2-((2-(methylcarbamoyl)-2-(2-oxo-4-(trifluoromethyl)imidazolidin-1-yl)-2,3-dihydro-1H-inden-5-yl)amino)-2-oxoethyl)-1-methyl-1H-pyrazole-5-carboxamide] | 346 nM | 519 nM
9 | CCC1CNC(=O)N(C2(C(=O)NC)Cc3ccc(NC(=O)[C@@H](NC(=O)c4ccnn4C)C4CCCCC4)cc3C2)C1 (stereo partly drawn) [Example 75, N-((1S)-1-cyclohexyl-2-((2-(5-ethyl-2-oxotetrahydropyrimidin-1(2H)-yl)-2-(methylcarbamoyl)-2,3-dihydro-1H-inden-5-yl)amino)-2-oxoethyl)-1-methyl-1H-pyrazole-5-carboxamide] | 33 nM | 186 nM
10 | CNC(=O)C1(N2CC3(CC3)CNC2=O)CCc2cc(NC(=O)[C@@H](NC(=O)c3ccnn3C)C3CCCCC3)sc2C1 (stereo partly drawn) [Example 145, N-((1S)-1-cyclohexyl-2-((6-(methylcarbamoyl)-6-(6-oxo-5,7-diazaspiro[2.5]octan-5-yl)-4,5,6,7-tetrahydrobenzo[b]thiophen-2-yl)amino)-2-oxoethyl)-1-methyl-1H-pyrazole-5-carboxamide] | 139 nM | 454 nM
11 | Cc1nonc1C(=O)N[C@H](C(=O)Nc1ccc2c(c1)CC(c1cn3ncccc3n1)(N1C[C@@H](C(C)C)NC1=O)C2)C(C1CC1)C1CC1 (stereo partly drawn) [Example 246, N-((2S)-1,1-dicyclopropyl-3-((2-(imidazo[1,2-b]pyridazin-2-yl)-2-((R)-4-isopropyl-2-oxoimidazolidin-1-yl)-2,3-dihydro-1H-inden-5-yl)amino)-3-oxopropan-2-yl)-4-methyl-1,2,5-oxadiazole-3-carboxamide] | 257 nM | 1220 nM
12 | Cc1ccc(NC(=O)C2(N3CC4(CC4)CNC3=O)Cc3ccc(NC(=O)[C@@H](NC(=O)c4nonc4C)C4CCC(F)(F)CC4)cc3C2)cc1 (stereo partly drawn) [Example 221, N-((1S)-1-(4,4-difluorocyclohexyl)-2-oxo-2-((2-(6-oxo-5,7-diazaspiro[2.5]octan-5-yl)-2-(p-tolylcarbamoyl)-2,3-dihydro-1H-inden-5-yl)amino)ethyl)-4-methyl-1,2,5-oxadiazole-3-carboxamide] | 47.8 nM | 111 nM
13 | CNC(=O)C1(N2CC(C)(C3CC3)CNC2=O)Cc2ccc(NC(=O)[C@@H](NC(=O)c3ccnn3C)C3CCCCC3)cc2C1 (stereo partly drawn) [Example 113, N-((1S)-1-cyclohexyl-2-((2-(5-cyclopropyl-5-methyl-2-oxotetrahydropyrimidin-1(2H)-yl)-2-(methylcarbamoyl)-2,3-dihydro-1H-inden-5-yl)amino)-2-oxoethyl)-1-methyl-1H-pyrazole-5-carboxamide] | 53 nM | 457 nM
14 | CNC(=O)C1(N2CC(C)(C(F)(F)F)CNC2=O)Cc2ccc(NC(=O)[C@@H](NC(=O)c3ccnn3C)C3CCCCC3)cc2C1 (stereo partly drawn) [Example 179, N-((1S)-1-cyclohexyl-2-((2-(5-methyl-2-oxo-5-(trifluoromethyl)tetrahydropyrimidin-1(2H)-yl)-2-(methylcarbamoyl)-2,3-dihydro-1H-inden-5-yl)amino)-2-oxoethyl)-1-methyl-1H-pyrazole-5-carboxamide] | 10.9 nM | 51.6 nM
15 | CNC(=O)C1(N2CC(C(C)C(F)(F)F)NC2=O)Cc2ccc(NC(=O)[C@@H](NC(=O)c3ccnn3C)C3CCCCC3)cc2C1 (stereo partly drawn) [Example 81, N-((1S)-1-cyclohexyl-2-((2-(methylcarbamoyl)-2-(2-oxo-4-(1,1,1-trifluoropropan-2-yl)imidazolidin-1-yl)-2,3-dihydro-1H-inden-5-yl)amino)-2-oxoethyl)-1-methyl-1H-pyrazole-5-carboxamide] | 75 nM | 702 nM
16 | C#CCC1CN(C2(C(=O)NC)Cc3ccc(NC(=O)[C@@H](NC(=O)c4ccnn4C)C4CCCCC4)cc3C2)C(=O)N1 (stereo partly drawn) [Example 63, N-((1S)-1-cyclohexyl-2-((2-(methylcarbamoyl)-2-(2-oxo-4-(prop-2-yn-1-yl)imidazolidin-1-yl)-2,3-dihydro-1H-inden-5-yl)amino)-2-oxoethyl)-1-methyl-1H-pyrazole-5-carboxamide] | 85 nM | 326 nM
17 | CNC(=O)C1(N2CC(C(C)c3ccccc3)NC2=O)Cc2ccc(NC(=O)[C@@H](NC(=O)c3ccnn3C)C3CCCCC3)cc2C1 (stereo partly drawn) [Example 48, N-((1S)-1-cyclohexyl-2-((2-(methylcarbamoyl)-2-(2-oxo-4-(1-phenylethyl)imidazolidin-1-yl)-2,3-dihydro-1H-inden-5-yl)amino)-2-oxoethyl)-1-methyl-1H-pyrazole-5-carboxamide] | 161 nM | 1270 nM
18 | Cc1nonc1C(=O)N[C@H](C(=O)Nc1ccc2c(c1)CC(C(=O)Nc1ccccc1C(F)(F)F)(N1C[C@@H](C(C)C)NC1=O)C2)C(C1CC1)C1CC1 (stereo partly drawn) [Example 272, N-((2S)-1,1-dicyclopropyl-3-((2-((R)-4-isopropyl-2-oxoimidazolidin-1-yl)-2-((2-(trifluoromethyl)phenyl)carbamoyl)-2,3-dihydro-1H-inden-5-yl)amino)-3-oxopropan-2-yl)-4-methyl-1,2,5-oxadiazole-3-carboxamide] | 295 nM | 650 nM
19 | CNC(=O)C1(N2C[C@@H](C(C)C)NC2=O)Cc2cc(NC(=O)[C@@H](NC(=O)c3ccnn3C)C3CCCCC3)cnc2C1 (stereo partly drawn) [Example 117, 3-((S)-2-cyclohexyl-2-(1-methyl-1H-pyrazole-5-carboxamido)acetamido)-6-((R)-4-isopropyl-2-oxoimidazolidin-1-yl)-N-methyl-6,7-dihydro-5H-cyclopenta[b]pyridine-6-carboxamide] | 925 nM | 1060 nM
20 | Cc1nonc1C(=O)N[C@H](C(=O)Nc1ccc2c(c1)CC(C#N)(N1CC3(CC3)CNC1=O)C2)C1CCC(F)(F)CC1 (stereo partly drawn) [Example 210, N-((1S)-2-((2-cyano-2-(6-oxo-5,7-diazaspiro[2.5]octan-5-yl)-2,3-dihydro-1H-inden-5-yl)amino)-1-(4,4-difluorocyclohexyl)-2-oxoethyl)-4-methyl-1,2,5-oxadiazole-3-carboxamide] | 91.6 nM | 294 nM
